Laboratory results published in patent US12331054B2, “Perk inhibiting imidazolopyrazine compounds” (HiberCell, Inc., priority 2019, dated 2025).

How the values were obtained:
[1] = target: Recombinant human EIF2AK3 (PERK) catalytic domain (amino acids 536-1116) (Homo sapiens (Human), UniProt Q9NZJ5); experiment: PERK In Vitro Activity Assay (isolated), TR-FRET kinase assay; conditions: isolated PERK enzyme, 1.5 μM ATP, read-out: Biochemical IC50
In short: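 Recombinant PERK catalytic domain was incubated with 100–200 nM GFP-eIF2a substrate in 50 mM HEPES pH 7.5, 10 mM MgCl2, 1.0 mM EGTA and 0.01% Brij-35 for 45 min at room temperature. After a 10 mM EDTA stop, 2 nM Tb-anti-phospho-eIF2a was added for 90 min, and IC50 was fitted from TR-FRET ratios by 4-parameter logistic regression.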

[2] = tested on: eIF2α in HEK293-EGFP-eIF2α cells; experiment: PERK Cellular Assay (HEK293-EGFP-eIF2α cells, tunicamycin-induced ER stress, TR-FRET); format: cell-based; conditions: tunicamycin 2 hours
In short: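 Cells pre-incubated with inhibitor 30 min at 37 °C, then ER stress induced with […] tunicamycin for 2 h. TR-FRET read on lysates; ratio normalized to DMSO control as percent inhibition over a 10-point, 3-fold dilution series; IC50 from 4-parameter logistic fit.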

Chain of Recombinant human EIF2AK3 (PERK) catalytic domain (amino acids 536-1116) (Q9NZJ5 536-1116): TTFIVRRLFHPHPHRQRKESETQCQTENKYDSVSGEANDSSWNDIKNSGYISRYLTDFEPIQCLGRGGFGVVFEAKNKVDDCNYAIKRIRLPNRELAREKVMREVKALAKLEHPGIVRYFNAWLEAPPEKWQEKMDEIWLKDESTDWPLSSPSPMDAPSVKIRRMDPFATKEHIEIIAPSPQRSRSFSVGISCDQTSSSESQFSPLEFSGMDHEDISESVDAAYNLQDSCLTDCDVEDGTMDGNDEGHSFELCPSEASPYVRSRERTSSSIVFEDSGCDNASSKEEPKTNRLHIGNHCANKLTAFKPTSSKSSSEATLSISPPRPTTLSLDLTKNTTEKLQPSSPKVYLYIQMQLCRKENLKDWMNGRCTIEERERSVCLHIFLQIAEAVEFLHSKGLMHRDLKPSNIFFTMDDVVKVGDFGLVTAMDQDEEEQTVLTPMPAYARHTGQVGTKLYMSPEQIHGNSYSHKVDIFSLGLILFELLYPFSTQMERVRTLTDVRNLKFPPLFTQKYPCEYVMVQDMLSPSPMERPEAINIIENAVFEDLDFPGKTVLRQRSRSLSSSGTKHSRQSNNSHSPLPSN

[2H]C([2H])([2H])c1nc(-c2ccc(NC(=O)C(O)c3cccc(C(F)(F)F)c3)nc2C)c2c(N)nc(C)cn12 (centres unmarked) [Example 176, N-[5-[8-amino-6-methyl-3-(trideuteriomethyl)imidazo[1,5-a]pyrazin-1-yl]-6-methyl-2-pyridyl]-2-hydroxy-2-[3-(trifluoromethyl)phenyl]acetamide]
IC50 [1]: 1 to 25 nM
IC50 [2]: 51 to 100 nM

[2H]C([2H])([2H])c1nc(-c2ccc(NC(=O)C(O)c3cc(F)cc(F)c3)cc2F)c2c(N)ncc(C)n12 (centres unmarked) [Example 105, N-[4-[8-amino-5-methyl-3-(trideuteriomethyl)imidazo[1,5-a]pyrazin-1-yl]-3-fluoro-phenyl]-2-(3,5-difluoro-phenyl)-2-hydroxy-acetamide]
IC50 [1]: 1 to 25 nM
IC50 [2]: 26 to 50 nM

[2H]C([2H])([2H])c1nc(-c2ccc(NC(=O)C(O)c3cc(F)cc(C(F)(F)F)c3)c(F)c2F)c2c(N)ncc(C)n12 (centres unmarked) [Example 161, N-[4-[8-amino-5-methyl-3-(trideuteriomethyl)imidazo[1,5-a]pyrazin-1-yl]-2,3-difluoro-phenyl]-2-[3-fluoro-5-(trifluoromethyl)phenyl]-2-hydroxy-acetamide]
IC50 [1]: 1 to 25 nM
IC50 [2]: 101 to 250 nM

[2H]C([2H])([2H])c1nc(-c2ccc(NC(=O)C(O)c3cc(F)cc(F)c3)cc2C)c2c(N)ncc(Cl)n12 (centres unmarked) [Example 48, N-[4-[8-amino-5-chloro-3-(trideuteriomethyl)imidazo[1,5-a]pyrazin-1-yl]-3-methyl-phenyl]-2-(3,5-difluoro-phenyl)-2-hydroxy-acetamide]
IC50 [1]: 1 to 25 nM
IC50 ([2]; 2 h): 1 to 25 nM

Cc1cc(NC(=O)C(O)c2cc(F)cc(C(F)(F)F)c2)ccc1-c1nc(C)n2c(C)cnc(N)c12 (centres unmarked) [Example 59, N-(4-(8-amino-3,5-dimethylimidazo [1,5-a]pyrazin-1-yl)-3-methylphenyl)-2-(3-fluoro-5-(trifluoromethyl)phenyl)-2-hydroxyacetamide]
IC50 [1]: 1 to 25 nM
IC50 [2]: 101 to 250 nM

[2H]C([2H])([2H])c1nc(-c2ccc(NC(=O)C(O)c3cc(F)cc(C(F)(F)F)c3)cc2F)c2c(N)ncc(Cl)n12 (centres unmarked) [Example 114, N-[4-[8-amino-5-chloro-3-(trideuteriomethyl)imidazo[1,5-a]pyrazin-1-yl]-3-fluoro-phenyl]-2-[3-fluoro-5-(trifluoromethyl)phenyl]-2-hydroxy-acetamide]
IC50 [1]: 1 to 25 nM
IC50 [2]: 1 to 25 nM

Cc1cn2c(C)nc(-c3ccc(NC(=O)C(O)c4cccc(F)c4)cc3C)c2c(N)n1 (single isomer, unassigned) [Example 3, N-(4-(8-amino-3,6-dimethylimidazo[1,5-a]pyrazin-1-yl)-3-methylphenyl)-2-(3-fluorophenyl)-2-hydroxyacetamide]
IC50 [1]: 1 to 25 nM
IC50 [2]: 26 to 50 nM

Cc1cnc(N)c2c(-c3ccc(NC(=O)C(O)c4cccc(C(F)(F)F)c4)cc3F)nc(C)n12 (centres unmarked) [Example 93, N-(4-(8-amino-3,5-dimethylimidazo [1,5-a]pyrazin-1-yl)-3-fluoro-phenyl)-2-hydroxy-2-(3-(trifluoromethyl)phenyl)acetamide]
IC50 [1]: 1 to 25 nM
IC50 [2]: 51 to 100 nM

[2H]C([2H])([2H])c1nc(-c2ccc(NC(=O)C(O)c3cc(F)cc(F)c3)c(F)c2F)c2c(N)ncc(Cl)n12 (centres unmarked) [Example 156, N-[4-[8-amino-5-chloro-3-(trideuteriomethyl)imidazo[1,5-a]pyrazin-1-yl]-2,3-difluoro-phenyl]-2-(3,5-difluorophenyl)-2-hydroxy-acetamide]
IC50 [1]: 1 to 25 nM
IC50 [2]: 1 to 25 nM

[2H]C([2H])([2H])c1nc(-c2ccc(NC(=O)C(O)c3cccc(F)c3)cc2F)c2c(N)ncc(C)n12 (centres unmarked) [Example 72, N-[4-[8-amino-5-methyl-3-(trideuteriomethyl)imidazo[1,5-a]pyrazin-1-yl]-3-fluoro-phenyl]-2-(3-fluorophenyl)-2-hydroxy-acetamide]
IC50 [1]: 1 to 25 nM
IC50 ([2]; 2 h): 1 to 25 nM

[2H]C([2H])([2H])c1nc(-c2ccc(NC(=O)C(O)c3cccc(C(F)(F)F)c3)cc2F)c2c(N)ncc(Cl)n12 (centres unmarked) [Example 100, N-[4-[8-amino-5-chloro-3-(trideuteriomethyl)imidazo[1,5-a]pyrazin-1-yl]-3-fluoro-phenyl]-2-hydroxy-2-[3-(trifluoromethyl)phenyl]acetamide]
IC50 [1]: 1 to 25 nM
IC50 ([2]; 2 h): 1 to 25 nM

[2H]C([2H])([2H])c1nc(-c2ccc(NC(=O)C(O)c3cccc(C(F)(F)F)c3)cc2C)c2c(N)nc(C)cn12 (centres unmarked) [Example 14, N-[4-[8-amino-6-methyl-3-(trideuteriomethyl)imidazo[1,5-a]pyrazin-1-yl]-3-methyl-phenyl]-2-hydroxy-2-[3-(trifluoromethyl)phenyl]acetamide]
IC50 [1]: 1 to 25 nM
IC50 [2]: 26 to 50 nM

Cc1cn2c(C)nc(-c3ccc(NC(=O)C(O)c4cccc(F)c4)cc3C)c2c(N)n1 (single isomer, unassigned) [Example 4, N-(4-(8-amino-3,6-dimethylimidazo[1,5-a]pyrazin-1-yl)-3-methylphenyl)-2-(3-fluorophenyl)-2-hydroxyacetamide]
IC50 [1]: 51 to 100 nM
IC50 [2]: 251 to 500 nM

Cc1cccc(C(O)C(=O)Nc2ccc(-c3nc(C)n4c(C)cnc(N)c34)c(F)c2)c1 (centres unmarked) [Example 88, N-(4-(8-amino-3,5-dimethylimidazo [1,5-a]pyrazin-1-yl)-3-fluoro-phenyl)-2-hydroxy-2-(m-tolyl)acetamide]
IC50 [1]: 1 to 25 nM
IC50 [2]: 1 to 25 nM

[2H]C([2H])([2H])c1nc(-c2cnc(NC(=O)C(O)c3cccc(F)c3)cc2C)c2c(N)nc(C)cn12 (centres unmarked) [Example 178, N-[5-[8-amino-6-methyl-3-(trideuteriomethyl)imidazo[1,5-a]pyrazin-1-yl]-4-methyl-2-pyridyl]-2-(3-fluorophenyl)-2-hydroxy-acetamide]
IC50 [1]: 251 to 500 nM
IC50 [2]: 4000 to 5000 nM

[2H]C([2H])([2H])c1nc(-c2ccc(NC(=O)C(O)c3cccc(C(F)(F)F)c3)nc2C)c2c(N)ncc(C)n12 (centres unmarked) [Example 174, N-[5-[8-amino-5-methyl-3-(trideuteriomethyl)imidazo[1,5-a]pyrazin-1-yl]-6-methyl-2-pyridyl]-2-hydroxy-2-[3-(trifluoromethyl)phenyl]acetamide]
IC50 [1]: 1 to 25 nM
IC50 [2]: 26 to 50 nM

[2H]C([2H])([2H])c1nc(-c2cnc(NC(=O)C(O)c3cccc(C(F)(F)F)c3)cc2C)c2c(N)nc(C)cn12 (centres unmarked) [Example 183, N-[5-[8-amino-6-methyl-3-(trideuteriomethyl)imidazo[1,5-a]pyrazin-1-yl]-4-methyl-2-pyridyl]-2-hydroxy-2-[3-(tnfluoromethyl)phenyl]acetamide]
IC50 [1]: 251 to 500 nM
IC50 [2]: 2000 to 3000 nM

Cc1cnc(N)c2c(-c3ccc(NC(=O)C(O)c4cccc(C(F)(F)F)c4)cc3F)nc(C)n12 (centres unmarked) [Example 92, N-(4-(8-amino-3,5-dimethylimidazo [1,5-a]pyrazin-1-yl)-3-fluoro-phenyl)-2-hydroxy-2-(3-(trifluoromethyl)phenyl)acetamide]
IC50 [1]: 1 to 25 nM
IC50 [2]: 1 to 25 nM

Cc1cnc(N)c2c(-c3ccc(NC(=O)C(O)c4cccc(F)c4)cc3OC(F)(F)F)nc(C)n12 (centres unmarked) [Example 127, N-(4-(8-amino-3,5-dimethyl-imidazo[1,5-a]pyrazin-1-yl)-3-(trifluoromethoxy)phenyl)-2-(3-fluorophenyl)-2-hydroxyacetamide]
IC50 [1]: 1 to 25 nM
IC50 [2]: 101 to 250 nM

[2H]C([2H])([2H])c1nc(-c2ccc(NC(=O)C(O)c3cc(F)cc(F)c3)cc2C)c2c(N)ncc(C)n12 (centres unmarked) [Example 50, N-[4-[8-amino-5-methyl-3-(trideuteriomethyl)imidazo[1,5-a]pyrazin-1-yl]-3-methyl-phenyl]-2-(3,5-difluoro-phenyl)-2-hydroxy-acetamide]
IC50 [1]: 1 to 25 nM
IC50 [2]: 1 to 25 nM

Cc1cnc(N)c2c(-c3ccc(NC(=O)C(O)c4cccc(F)c4)c(F)c3)nc(C)n12 (centres unmarked) [Example 124, N-(4-(8-amino-3,5-dimethyl-imidazo[1,5-a]pyrazin-1-yl)-2-fluorophenyl)-2-(3-fluorophenyl)-2-hydroxy-acetamide]
IC50 [1]: 26 to 50 nM
IC50 [2]: 501 to 1000 nM

Cc1cnc(N)c2c(-c3ccc(NC(=O)C(O)c4cccc(F)c4)cc3)nc(C)n12 (centres unmarked) [Example 69, N-(4-(8-amino-3,5-dimethylimidazo [1,5-a]pyrazin-1-yl)phenyl)-2-(3-fluorophenyl)-2-hydroxyacetamide]
IC50 [1]: 1 to 25 nM
IC50 [2]: 1 to 25 nM

[2H]C([2H])([2H])c1nc(-c2ccc(NC(=O)C(O)c3cc(F)cc(C(F)(F)F)c3)cc2C)c2c(N)ncc(Cl)n12 (centres unmarked) [Example 56, N-[4-[8-amino-5-chloro-3-(trideuteriomethyl)imidazo[1,5-a]pyrazin-1-yl]-3-methyl-phenyl]-2-[3-fluoro-5-(trifluoromethyl)phenyl]-2-hydroxy-acetamide]
IC50 [1]: 1 to 25 nM
IC50 [2]: 1 to 25 nM

[2H]C([2H])([2H])c1nc(-c2ccc(NC(=O)C(O)c3cccc(C(F)(F)F)c3)cc2C)c2c(N)ncc(C(F)(F)F)n12 (centres unmarked) [Example 21, N-[4-[8-amino-3-(trideuteriomethyl)-5-(trifluoromethyl)imidazo[1,5-a]pyrazin-1-yl]-3-methyl-phenyl]-2-hydroxy-2-[3-(trifluoromethyl)phenyl]acetamide]
IC50 [1]: 51 to 100 nM
IC50 [2]: 501 to 1000 nM

[2H]C([2H])([2H])c1nc(-c2ccc(NC(=O)C(O)c3cccc(C(F)(F)F)c3)c(F)c2F)c2c(N)nc(C)cn12 (centres unmarked) [Example 150, N-[4-[8-amino-6-methyl-3-(trideuteriomethyl)imidazo[1,5-a]pyrazin-1-yl]-2,3-difluoro-phenyl]-2-hydroxy-2-[3-(trifluoromethyl)phenyl]acetamide]
IC50 [1]: 1 to 25 nM
IC50 [2]: 26 to 50 nM
